# Measurements published in ChEMBL document CHEMBL1145531, “Cyclopentanone ring-cleaved pleuromutilin derivatives” (2007).
# Experiments:
# Staphylococcus aureus = test: Antibacterial activity against Staphylococcus aureus A15090 after 24 hrs; format: functional; conditions: A15090, 24 h
# Streptococcus pneumoniae = test: Antibacterial activity against Streptococcus pneumoniae A9585 after 24 hrs; format: functional; conditions: A9585, 24 h
MIC (Staphylococcus aureus),MIC (Streptococcus pneumoniae),SMILES
0.25 µg/mL,0.125 µg/mL,C=C[C@]1(C)C[C@@H](OC(=O)CSc2cccc(N)c2)[C@@]2(C)C(=O)[C@](CCC(=O)O)(CCC2C)[C@@H](C)[C@@H]1O (stereo not given in full)
1 µg/mL,1 µg/mL,C=C[C@]1(C)C[C@@H](OC(=O)CSc2cccc(N)c2)[C@@]2(C)C(=O)[C@](CCC(=O)OCC)(CCC2C)[C@@H](C)[C@@H]1O (stereo not given in full)
> 128 µg/mL,> 64 µg/mL,C=C[C@]1(C)C[C@@H](OC(=O)CSc2ccccc2)[C@@]2(C)C(=O)[C@](CCC(=O)O)(CCC2C)[C@@H](C)[C@@H]1O (stereo not given in full)
8 µg/mL,4 µg/mL,C=C[C@]1(C)C[C@@H](OC(=O)CSc2ccccc2O)[C@@]2(C)C(=O)[C@](CCC(=O)O)(CCC2C)[C@@H](C)[C@@H]1O (stereo not given in full)
32 µg/mL,4 µg/mL,C=C[C@]1(C)C[C@@H](OC(=O)CSc2cccc(N)c2)[C@@]2(C)C(=O)[C@](CCC(=O)N(CC)CC)(CCC2C)[C@@H](C)[C@@H]1O (stereo not given in full)
32 µg/mL,4 µg/mL,C=C[C@]1(C)C[C@@H](OC(=O)CSc2cc(C)nc(C)c2)[C@@]2(C)C(=O)[C@](CCC(=O)N(CC)CC)(CCC2C)[C@@H](C)[C@@H]1O (stereo not given in full)
32 µg/mL,4 µg/mL,C=C[C@]1(C)C[C@@H](OC(=O)CSc2ccccc2C(=O)O)[C@@]2(C)C(=O)[C@](CCC(=O)N(CC)CC)(CCC2C)[C@@H](C)[C@@H]1O (stereo not given in full)
8 µg/mL,2 µg/mL,C=C[C@]1(C)C[C@@H](OC(=O)CSc2cccc(N)c2)[C@@]2(C)C(=O)[C@](CCC(=O)NCC(=O)O)(CCC2C)[C@@H](C)[C@@H]1O (stereo not given in full)
8 µg/mL,8 µg/mL,C=C[C@]1(C)C[C@@H](OC(=O)CSc2ccccn2)[C@@]2(C)C(=O)[C@](CCC(=O)O)(CCC2C)[C@@H](C)[C@@H]1O (stereo not given in full)
128 µg/mL,64 µg/mL,C=C[C@]1(C)C[C@@H](OC(=O)CSc2ccncc2)[C@@]2(C)C(=O)[C@](CCC(=O)O)(CCC2C)[C@@H](C)[C@@H]1O (stereo not given in full)
1 µg/mL,1 µg/mL,C=C[C@]1(C)C[C@@H](OC(=O)CSc2ccccn2)[C@@]2(C)C(=O)[C@](CCC(=O)OCC)(CCC2C)[C@@H](C)[C@@H]1O (stereo not given in full)
> 128 µg/mL,> 64 µg/mL,C=C[C@]1(C)C[C@@H](OC(=O)CO)[C@@]2(C)C(=O)[C@](CCC(=O)N(CC)CC)(CCC2C)[C@@H](C)[C@@H]1O (stereo not given in full)

# Second part, the compound before the results:
SMILES,MIC (Staphylococcus aureus),MIC (Streptococcus pneumoniae)
C=C[C@]1(C)C[C@@H](OC(=O)CSc2ccncc2)[C@@]2(C)C(=O)[C@](CCC(=O)OCC)(CCC2C)[C@@H](C)[C@@H]1O (stereo not given in full),8 µg/mL,8 µg/mL
C=C[C@]1(C)C[C@@H](OC(=O)CO)[C@@]2(C)C(=O)[C@](CCN)(CCC2C)[C@@H](C)[C@@H]1O (stereo not given in full),> 128 µg/mL,> 64 µg/mL
C=C[C@]1(C)C[C@@H](OC(=O)CO)[C@@]2(C)C(=O)[C@](CCNC(=O)OCC)(CCC2C)[C@@H](C)[C@@H]1O (stereo not given in full),16 µg/mL,0.25 µg/mL
C=C[C@]1(C)C[C@@H](OC(=O)CO)[C@@]2(C)C(=O)[C@](CCC(N)=O)(CCC2C)[C@@H](C)[C@@H]1O (stereo not given in full),128 µg/mL,64 µg/mL
C=C[C@]1(C)C[C@@H](OC(=O)CO)[C@@]2(C)C(=O)[C@](CCCO)(CCC2C)[C@@H](C)[C@@H]1O (stereo not given in full),> 128 µg/mL,> 64 µg/mL
C=C[C@]1(C)C[C@@H](OC(=O)CO)[C@@]2(C)C(=O)[C@](CCC(=O)O)(CCC2C)[C@@H](C)[C@@H]1O (stereo not given in full),8 µg/mL,8 µg/mL
C=C[C@]1(C)C[C@@H](OC(=O)CSc2nnc(N)[nH]2)[C@@]2(C)C(=O)[C@](CCC(=O)O)(CCC2C)[C@@H](C)[C@@H]1O (stereo not given in full),> 128 µg/mL,> 64 µg/mL
C=C[C@]1(C)C[C@@H](OC(=O)CO)[C@]2(C)[C@H](C)CC[C@]3(CCC(=O)[C@@H]32)[C@@H](C)[C@@H]1O [PLEUROMUTILIN],0.5 µg/mL,0.5 µg/mL
C=C[C@]1(C)C[C@@H](OC(=O)CO)[C@@]2(C)C(=O)[C@](CCCNC(=O)c3ccno3)(CCC2C)[C@@H](C)[C@@H]1O (stereo not given in full),32 µg/mL,2 µg/mL
C=C[C@]1(C)C[C@@H](OC(=O)CO)[C@@]2(C)C(=O)[C@](CCC(=O)NCC)(CCC2C)[C@@H](C)[C@@H]1O (stereo not given in full),> 128 µg/mL,> 64 µg/mL
C=C[C@]1(C)C[C@@H](OC(=O)CO)[C@@]2(C)C(=O)[C@](CCNC(=O)OCc3ccccc3)(CCC2C)[C@@H](C)[C@@H]1O (stereo not given in full),16 µg/mL,0.25 µg/mL
C=C[C@]1(C)C[C@@H](OC(=O)CSc2cccc(N)c2)[C@@]2(C)C(=O)[C@](CCC)(CCC2C)[C@@H](C)[C@@H]1O (stereo not given in full),16 µg/mL,8 µg/mL
C=C[C@]1(C)C[C@@H](OC(=O)CSc2cccc(N)c2)[C@@]2(C)C(=O)[C@](CCC(=O)NCC(=O)OC(C)(C)C)(CCC2C)[C@@H](C)[C@@H]1O (stereo not given in full),4 µg/mL,0.5 µg/mL
